The nature of series [1]: Photophysical property of the compound in water assessed as fluorescence quantum yield under 450 nm photoirradiation with blue light lamp by U-4100 spectrophotometric analysis. Format: physicochemical. The arrangement: unit not given here. To be noted: buffer.
In series [2] the test system is HepG2. Put plainly: Induction of ferroptosis in human HepG2 cells assessed as cell death preincubated with compound for 4 hrs followed by light irradiation with 450 nm blue LED lamp for 10 mins and measured after 24 hrs in presence of 50 uM ferrostatin-1 by MTT assay. Format: functional, cell-based. To be noted: time 1690.0 min. For orientation: Formazan colour is commonly taken as a measure of viable cells.

A short description of series [3]: Drug localization in endoplasmic reticulum of human HepG2 cells at 2 uM incubated for 2 hrs by ER-Tracker Blue staining based confocal fluorescence microscopy. To be noted: hepg2, 2 h. Format: ADME, subcellular.
Series [4] in a line: Phototoxic index, ratio of IC50 for cytotoxicity against human HepG2 cells incubated for 4 hrs under dark condition by MTT assay to IC50 for cytotoxicity against human HepG2 cells preincubated with compound for 4 hrs followed by light irradiation with 450 nm blue LED lamp for 10 mins and measured after 24 hrs by MTT assay. Type of series: functional.
Series [5] deals with HepG2. Put plainly: Induction of apoptosis in human HepG2 cells assessed as chromatin condensation by measuring increase in red fluorescence at 0.1 uM preincubated with compound for 4 hrs followed by light irradiation with 450 nm blue LED lamp for 10 mins and measured after 24 hrs by PI staining based confocal microscopic analysis. Type of series: functional, cell-based. To be noted: time 1690.0 min.

The subject of series [6] is HepG2. Put plainly: Induction of apoptosis in human HepG2 cells assessed as chromatin condensation by measuring increase in blue fluorescence at 0.1 uM preincubated with compound for 4 hrs followed by light irradiation with 450 nm blue LED lamp for 10 mins and measured after 24 hrs by Hoechst 33342 staining based confocal microscopic analysis. To be noted: time 1690.0 min. Format: functional, cell-based.

A short description of series [7]: Phototoxicity against human HepG2 cells assessed as cell viability preincubated with compound for 4 hrs followed by light irradiation with 450 nm blue LED lamp for 10 mins and measured after 24 hrs by MTT assay. Type of series: functional, cell-based. To be noted: HepG2, light or radiation study.
Series [8] can be described thus: Photophysical property of the compound assessed as singlet oxygen quantum yield under 15 W photoirradiation with blue LED light by EPR spectrophotometric analysis. Type of series: physicochemical. More on the design: unit not given here.
Series [9] relates to HepG2. Description: Induction of ferroptosis in human HepG2 cells assessed as cell viability preincubated with compound for 4 hrs followed by light irradiation with 450 nm blue LED lamp for 10 mins and measured after 24 hrs in presence of 3-methyladenine by MTT assay. Format: functional, cell-based. To be noted: time 1690.0 min.
Series [10] deals with HepG2. Put plainly: Induction of ferroptosis in human HepG2 cells assessed as cell death preincubated with compound for 4 hrs followed by light irradiation with 450 nm blue LED lamp for 10 mins and measured after 24 hrs in presence of ferrostatin-1 by MTT assay. Format: functional, cell-based. To be noted: time 1690.0 min.
Series [11] in a line: Photophysical property of the compound in MeOH assessed as fluorescence quantum yield under 450 nm photoirradiation with blue light lamp by U-4100 spectrophotometric analysis. Type of series: physicochemical. The arrangement: unit not given here.
Series [12] has as its system HepG2. Put plainly: Induction of ferroptosis in human HepG2 cells assessed as cell viability preincubated with compound for 4 hrs followed by light irradiation with 450 nm blue LED lamp for 10 mins and measured after 24 hrs in presence of necrostatin-1 by MTT assay. Type of series: functional, cell-based. To be noted: time 1690.0 min.
The subject of series [13] is HepG2. Description: Induction of ferroptosis in human HepG2 cells assessed as cell viability preincubated with compound for 4 hrs followed by light irradiation with 450 nm blue LED lamp for 10 mins and measured after 24 hrs in presence of chloroquine by MTT assay. Type of series: functional, cell-based. To be noted: time 1690.0 min.
In series [14] the test system is HepG2. Put plainly: Cytotoxicity against human HepG2 cells assessed as cell viability incubated for 4 hrs under dark condition by MTT assay. Format: functional, cell-based. To be noted: HepG2, 4 h.
For series [15], the system named is HepG2. Description: Induction of mitochondrial damage in human HepG2 cells assessed as change in mitochondrial morphology at 1 uM preincubated with compound for 4 hrs followed by light irradiation with blue LED lamp for 10 mins and measured after 24 hrs by confocal microscopic analysis. Format: functional, cell-based. To be noted: time 1690.0 min.
The test system of series [16] is HepG2. Description: Induction of apoptosis in human HepG2 cells assessed as chromatin condensation by measuring increase in red fluorescence at 0.3 uM preincubated with compound for 4 hrs followed by light irradiation with 450 nm blue LED lamp for 10 mins and measured after 24 hrs by PI staining based confocal microscopic analysis. Format: functional, cell-based. To be noted: time 1690.0 min.

The nature of series [17]: Drug localization in mitochondria of human HepG2 cells at 2 uM incubated for 2 hrs by MitoTracker red CMXRos staining based confocal fluorescence microscopy. Type of series: ADME. To be noted: hepg2, 2 h.
For series [18], the system named is HepG2. Put plainly: Induction of apoptosis in human HepG2 cells assessed as change in Bcl-2 level preincubated with compound for 4 hrs followed by light irradiation with blue LED lamp for 10 mins and measured after 24 hrs by Western blot analysis. Type of series: functional, cell-based. To be noted: time 1690.0 min. For orientation: In western blotting, separated proteins are transferred to a membrane and probed.

The test system of series [19] is HepG2. Description: Induction of apoptosis in human HepG2 cells assessed as chromatin condensation by measuring increase in blue fluorescence at 0.3 uM preincubated with compound for 4 hrs followed by light irradiation with 450 nm blue LED lamp for 10 mins and measured after 24 hrs by Hoechst 33342 staining based confocal microscopic analysis. To be noted: time 1690.0 min. Format: functional, cell-based.

In series [20] the test system is HepG2. Put plainly: Induction of apoptosis in human HepG2 cells assessed as effect on PARP level preincubated with compound for 4 hrs followed by light irradiation with blue LED lamp for 10 mins and measured after 24 hrs by Western blot analysis. Format: functional, cell-based. To be noted: time 1690.0 min.
Series [21] relates to HepG2. Description: Induction of apoptosis in human HepG2 cells assessed as increase in Bax expression preincubated with compound for 4 hrs followed by light irradiation with blue LED lamp for 10 mins and measured after 24 hrs by Western blot analysis. Format: functional, cell-based. To be noted: time 1690.0 min.
The subject of series [22] is HepG2. Put plainly: Induction of ferroptosis in human HepG2 cells assessed as downregulation of Fth1 expression preincubated with compound for 4 hrs followed by light irradiation with blue LED lamp for 10 mins and measured after 24 hrs in presence of Fer-1 by Western blot analysis. To be noted: time 1690.0 min. Type of series: functional, cell-based.
Series [23] deals with HepG2. Description: Induction of apoptosis in human HepG2 cells assessed as effect on caspase-3 level preincubated with compound for 4 hrs followed by light irradiation with blue LED lamp for 10 mins and measured after 24 hrs by Western blot analysis. To be noted: time 1690.0 min. Type of series: functional, cell-based.
Series [24] deals with HepG2. Description: Induction of ferroptosis in human HepG2 cells assessed as downregulation of Gpx4 expression preincubated with compound for 4 hrs followed by light irradiation with blue LED lamp for 10 mins and measured after 24 hrs in presence of Fer-1 by Western blot analysis. Format: functional, cell-based. To be noted: time 1690.0 min.
The test system of series [25] is HepG2. Put plainly: Antiproliferative activity against human HepG2 cells cultured as 3D spheroids assessed as inhibition of cell growth at 5 uM pretreated with 450 nm light irradiation and compound for 10 mins and measured at day 5 by fluorescence microscopic analysis. Format: functional, cell-based. To be noted: time 7210.0 min.
The subject of series [26] is HepG2. Put plainly: Induction of ferroptosis in human HepG2 cells assessed as cell viability preincubated with compound for 4 hrs followed by light irradiation with 450 nm blue LED lamp for 10 mins and measured after 24 hrs in presence of 50 uM Fer-1 by MTT assay relative to control. Format: functional. To be noted: time 1690 min; 28.17 h.
A further series deals with Mitochondrial membrane. Put plainly: Induction of mitochondrial membrane potential loss in human HepG2 cells at 3 uM incubated for 4 hrs in presence of light irradiation by TMRE staining based fluorescence microscopic analysis. Type of series: cell membranes.
The test system of series [27] is HepG2. Put plainly: Induction of apoptosis in human HepG2 cells assessed as cytochrome C release from mitochondria preincubated with compound for 4 hrs followed by light irradiation with blue LED lamp for 10 mins and measured after 24 hrs by Western blot analysis. Type of series: functional, cell-based. To be noted: time 1690.0 min.
Series [28] deals with HepG2. Put plainly: Antiproliferative activity against human HepG2 cells cultured as 3D spheroids assessed as inhibition of cell growth at 5 to 10 uM pretreated with 450 nm light irradiation and compound for 10 mins and measured at day 5 by fluorescence microscopic analysis. Type of series: functional, cell-based. To be noted: dose 5-10 µM, time 7210.0 min.
The subject of series [29] is HepG2. Put plainly: Induction of ferroptosis in human HepG2 cells assessed as downregulation of Keap1 expression preincubated with compound for 4 hrs followed by light irradiation with blue LED lamp for 10 mins and measured after 24 hrs in presence of Fer-1 by Western blot analysis. Type of series: functional, cell-based. To be noted: time 1690.0 min.
For series [30], the system named is HepG2. Description: Induction of apoptosis in human HepG2 cells assessed as reduction in Bcl-2/Bax ratio preincubated with compound for 4 hrs followed by light irradiation with blue LED lamp for 10 mins and measured after 24 hrs by Western blot analysis. Type of series: functional, cell-based. To be noted: time 1690.0 min.
The nature of series [31]: Drug localization in lysosome of human HepG2 cells at 2 uM incubated for 2 hrs by Lyso-Tracker staining based confocal fluorescence microscopy. Format: ADME, subcellular. To be noted: hepg2, 2 h.
Series [32] is described as follows: Drug localization in nucleus of human HepG2 cells at 2 uM incubated for 2 hrs by […] staining based confocal fluorescence microscopy. To be noted: hepg2, 2 h. Type of series: ADME, subcellular.

Calls of active or inactive are those of the source. No cut-off for these calls is given here.

A word on the IC50: it is the concentration needed to halve the response being measured. In the case of `CCN(CC)c1ccc2cc(-c3nc4ccc(OCc5cn(CCNS(=O)(=O)c6ccc(C)cc6)nn5)cc4c(=O)[nH]3)c(=O)oc2c1`, the Activity in series [1] worked out at 7.55; in series [8], 30.08; in [11], 59.27. For the same compound, the result in the series with HepG2 [2], with HepG2 [5], in the series with HepG2 [6], in the series on HepG2 [9], in the series on HepG2 [10] and in the series on HepG2 [12] was Active. In addition, the outcome with HepG2 [13] was Active. Besides, the Drug uptake result in series [3] is reported as “Active”. Besides, the “Ratio IC50” value in [4] is reported as 244.93. The IC50 in series [7] is 0.15 µM; with HepG2 [14] it was 36.7 µM.
Take `CCN(CC)c1ccc2cc(-c3nc4ccc(OCc5cn(CCC[P+](c6ccccc6)(c6ccccc6)c6ccccc6)nn5)cc4c(=O)[nH]3)c(=O)oc2c1.[Br-]`: the outcome with HepG2 [15], in the series with HepG2 [16], with HepG2 [19], with HepG2 [20], in the series with HepG2 [21] and in the series on HepG2 [22] was Active. For the same compound, the outcome in the series on HepG2 [23], in the series with HepG2 [24], with HepG2 [25], in the series with Mitochondrial membrane, in the series with HepG2 [27] and in the series on HepG2 [28] was Active. For the same compound, the result in the series with HepG2 [29] and in the series with HepG2 [30] was Active. In addition, the Activity in series [1] is reported as 8.72; in series [8] it was 27.22; in [11] it was 69.6; with HepG2 [26], roughly 70%. Besides, in series [4], the “Ratio IC50” value was 166.89. In [17], the Drug uptake entry is recorded as “Active”. In the series on HepG2 [18], the result was inactive. Further, the IC50 was found to be 0.28 µM in series [7] and 46.7 µM with HepG2 [14].
With `CCN(CC)c1ccc2cc(-c3nc4ccc(O)cc4c(=O)[nH]3)c(=O)oc2c1`, the figures for the Activity in series [1], in series [8] and in [11] were less than 5, 12.86 and 36.66, respectively. The “Ratio IC50” value in [4] amounted to 2.35. Moreover, the values for the IC50 (in series [7]; with HepG2 [14]) were 24.5 µM and 57.6 µM, respectively.
In the case of `CCN(CC)c1ccc2cc(-c3nc4ccc(OCCCN5CCOCC5)cc4c(=O)[nH]3)c(=O)oc2c1`, the Activity in series [1] is listed as 31.49; in series [8], 13.06; in series [11], 79.66. For the same compound, in [4], the “Ratio IC50” value was found to be 32.52. Besides, in [31], the Drug uptake entry is given as “Active”. The values for the IC50 (in series [7]; with HepG2 [14]) were 0.38 µM and 12.4 µM, respectively.
As to `CCN(CC)c1ccc2cc(-c3nc4ccc(OCCN5CCCCC5)cc4c(=O)[nH]3)c(=O)oc2c1`, the figures for the Activity in [1], in series [8] and in series [11] were 15.68, 24.5 and 47.65, respectively. Further, the “Ratio IC50” value in series [4] is 35.9. Further, the results for the IC50 (in [7]; with HepG2 [14]) were 0.11 µM and 3.95 µM, respectively. Also, the Drug uptake result in series [32] is “Active”.

Values taken from ChEMBL document CHEMBL6092198, “Coumarin-Quinazolinone based photosensitizers: Mitochondria and endoplasmic reticulum targeting for enhanced phototherapy via different cell death pathways” (Eur J Med Chem, 2024).
